In ChEMBL document CHEMBL1201862, “PubChem BioAssay data set” (2004):
Active and inactive are the calls of the source.

Tests used:
[1] = Luminescence Cell-Based Dose Confirmation HTS to Identify Activators of 5'UTR Stem-Loop Driven Alpha-Synuclein mRNA Translation in H4 Neuroglioblastoma Cells. [Related pubchem assays: 1829 (Project Summary), 1814 (Primary HTS)]; assay type: functional
[2] = Luminescence Cell-Based Dose Response HTS to Identify Activators of Luciferase Translation or Activity in H4 […] Cells. [Related pubchem assays: 1829 (Project Summary), 1814 (Primary HTS)]; assay type: functional
H4 = assay: Luminescence Cell-Based Dose Response HTS to Identify Activators of 5'UTR Stem-Loop Driven Prion Protein mRNA Translation in H4 Neuroglioblastoma Cells. [Related pubchem assays: 1829 (Project Summary), 1814 (Primary HTS)]; assay type: functional; conditions: Homo sapiens
[3] = molecular target: T1, Apoptotic protease-activating factor 1 (Homo sapiens, UniProt O14727); assay type: functional
T1 sequence (O14727 whole entry): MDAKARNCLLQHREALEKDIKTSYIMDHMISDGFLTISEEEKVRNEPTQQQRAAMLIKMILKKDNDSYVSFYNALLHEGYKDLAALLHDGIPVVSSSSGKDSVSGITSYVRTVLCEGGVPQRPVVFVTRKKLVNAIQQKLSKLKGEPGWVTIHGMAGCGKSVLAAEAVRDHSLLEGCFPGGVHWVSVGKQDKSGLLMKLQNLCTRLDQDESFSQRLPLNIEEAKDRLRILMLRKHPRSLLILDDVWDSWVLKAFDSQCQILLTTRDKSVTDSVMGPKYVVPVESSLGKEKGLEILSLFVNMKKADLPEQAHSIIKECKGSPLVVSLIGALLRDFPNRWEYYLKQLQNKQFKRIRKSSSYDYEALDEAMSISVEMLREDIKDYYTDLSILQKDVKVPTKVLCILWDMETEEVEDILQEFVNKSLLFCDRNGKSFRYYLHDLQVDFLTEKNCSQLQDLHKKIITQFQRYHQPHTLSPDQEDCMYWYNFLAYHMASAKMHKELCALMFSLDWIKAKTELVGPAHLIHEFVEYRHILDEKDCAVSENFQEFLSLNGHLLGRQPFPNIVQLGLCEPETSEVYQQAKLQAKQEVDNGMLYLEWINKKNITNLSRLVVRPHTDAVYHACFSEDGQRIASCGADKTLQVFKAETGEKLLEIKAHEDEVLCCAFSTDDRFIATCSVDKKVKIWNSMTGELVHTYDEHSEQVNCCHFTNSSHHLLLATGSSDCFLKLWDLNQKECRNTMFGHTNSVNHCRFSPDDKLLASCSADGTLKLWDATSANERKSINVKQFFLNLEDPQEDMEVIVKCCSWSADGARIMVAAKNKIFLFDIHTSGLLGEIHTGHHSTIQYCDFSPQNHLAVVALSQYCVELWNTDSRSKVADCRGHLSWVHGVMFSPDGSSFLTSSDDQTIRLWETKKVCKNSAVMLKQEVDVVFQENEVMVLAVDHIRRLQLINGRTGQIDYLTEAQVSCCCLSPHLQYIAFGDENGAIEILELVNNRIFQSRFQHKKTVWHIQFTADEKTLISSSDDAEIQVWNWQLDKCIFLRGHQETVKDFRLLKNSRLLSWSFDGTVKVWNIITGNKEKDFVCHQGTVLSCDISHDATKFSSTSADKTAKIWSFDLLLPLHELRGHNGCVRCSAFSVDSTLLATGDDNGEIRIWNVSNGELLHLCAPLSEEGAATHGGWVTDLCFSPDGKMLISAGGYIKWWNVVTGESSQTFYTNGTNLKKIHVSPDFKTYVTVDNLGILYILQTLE

Protein skinhead-1 = molecular target: T2, Protein skinhead-1 (Caenorhabditis elegans, UniProt P34707); assay type: functional
T2 sequence (P34707 whole entry): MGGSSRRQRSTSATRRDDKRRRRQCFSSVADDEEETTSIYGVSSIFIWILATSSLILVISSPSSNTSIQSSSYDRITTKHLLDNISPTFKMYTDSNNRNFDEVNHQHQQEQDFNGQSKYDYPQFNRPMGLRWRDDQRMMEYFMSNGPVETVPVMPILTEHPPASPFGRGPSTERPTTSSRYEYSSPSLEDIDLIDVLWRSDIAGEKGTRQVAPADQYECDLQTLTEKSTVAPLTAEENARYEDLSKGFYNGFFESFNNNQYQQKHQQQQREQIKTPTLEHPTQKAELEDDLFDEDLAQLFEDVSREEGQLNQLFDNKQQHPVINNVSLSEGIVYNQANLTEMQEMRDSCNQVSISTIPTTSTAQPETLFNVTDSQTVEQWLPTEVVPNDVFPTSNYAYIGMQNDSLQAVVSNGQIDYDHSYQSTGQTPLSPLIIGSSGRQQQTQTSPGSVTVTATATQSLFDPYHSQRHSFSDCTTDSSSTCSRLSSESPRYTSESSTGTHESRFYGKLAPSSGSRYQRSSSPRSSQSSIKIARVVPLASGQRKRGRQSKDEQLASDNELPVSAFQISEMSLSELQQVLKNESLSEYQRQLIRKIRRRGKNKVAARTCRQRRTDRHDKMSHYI

[4] = Luminescence Cell-Based Dose Retest to Confirm Inhibitors of Cancer Stem Cells. [Related pubchem assays (depositor defined):AID2717, AID2721]; assay type: functional; conditions: Homo sapiens
INS1 = assay: INS-1E survival protection against cytokine death – cell-based, luminescence, retest, dose response (AID 449756); assay type: functional; conditions: Rattus norvegicus;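 note: cell death triggered by IL-1 beta plus TNF-alpha plus IFN-gamma mixture; protective hits raise ATP signal compared with cytokine alone wells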
Melanocortin receptor 4 [5] = molecular target: T3, Melanocortin receptor 4 (Homo sapiens, UniProt P32245); assay: inhibitors of MC4R cAMP signaling – cell-based, TR-FRET, biased antagonists, dose response (AID 602298); assay type: functional;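 note: antagonist potency against agonist-stimulated cAMP production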
[6] = reduction of Shn3 3'UTR-driven luciferase in osteoblasts – cell-based, Clone20 osteoblasts, firefly luciferase, cherry-picked, dose response (AID 624132); assay type: functional;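 note: firefly luciferase luminescence from reporter carrying the Shn3 3'UTR in osteoblasts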
[7] = loss of viability in HepG2 cells – cell-based, CellTiter-Glo, cherry-picked, cytotoxicity control for Shn3 inhibitor project, dose response (AID 624134); assay type: functional
[8] = non-specific 3'UTR reporter inhibition in Clone20-Shn3RL – cell-based, Renilla luciferase, cherry-picked, counter-screen for Shn3 inhibitor project, dose response (AID 624133); assay type: functional
[9] = cAMP pathway inhibition in counterscreen cell line – TR-FRET cAMP detection, counter-screen for MC4R biased antagonist project, dose response (AID 602305); assay type: functional, cell-based;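 note: U2OS cells stimulated with forskolin near its EC80 as the cAMP inducer; potency is for inhibition of forskolin-stimulated cAMP signaling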
[10] = Fluorescence-based cell-based high throughput dose response assay for inhibitors of the interaction of nucleotide-binding oligomerization domain containing 2 (NOD2) and the receptor-interacting serine-threonine kinase 2 (RIPK2).; assay type: functional; conditions: Homo sapiens
[11] = molecular target: T4, Microphthalmia-associated transcription factor (Homo sapiens, UniProt O75030); assay: reducers of TRPM1 reporter luminescence, concentration series – cell-based, SK-MEL-5, cherry-picked, set 3, MITF inhibitor project, dose response (AID 493073); assay type: functional;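 note: SK-MEL-5 melanoma cells with luciferase driven by the MITF target TRPM1 promoter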
T4 sequence (O75030 whole entry): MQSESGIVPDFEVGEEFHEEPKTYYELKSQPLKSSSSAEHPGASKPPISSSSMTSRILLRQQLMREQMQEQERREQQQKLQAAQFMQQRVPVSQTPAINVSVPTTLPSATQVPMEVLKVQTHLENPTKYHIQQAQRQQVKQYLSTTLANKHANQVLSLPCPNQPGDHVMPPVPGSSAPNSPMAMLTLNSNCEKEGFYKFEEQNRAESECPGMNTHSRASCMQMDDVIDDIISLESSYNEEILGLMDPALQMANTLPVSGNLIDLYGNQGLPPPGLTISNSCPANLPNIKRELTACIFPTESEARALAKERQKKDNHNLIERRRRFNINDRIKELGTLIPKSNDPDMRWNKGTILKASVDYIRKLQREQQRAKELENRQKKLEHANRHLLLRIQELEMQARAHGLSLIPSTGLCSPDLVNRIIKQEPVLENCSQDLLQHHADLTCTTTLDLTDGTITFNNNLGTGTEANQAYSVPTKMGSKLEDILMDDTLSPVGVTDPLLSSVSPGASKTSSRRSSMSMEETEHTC

A-375 = assay: proliferation inhibition in MITF-low A375 cells – cell-based, cherry-pick samples, set 2, counter-screen for MITF modulator project, dose response (AID 540335); assay type: functional; conditions: Homo sapiens
Cytochrome P450 3A4 = Cytochrome P450 3A4 (Homo sapiens, UniProt P08684);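 note: CYP3A4 tested as one member of a cytochrome P450 panel screen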
Melanocortin receptor 4 [12] = molecular target: T3, Melanocortin receptor 4; assay type: functional, cell-based
[13] = THP-1 cell cytotoxicity, cytotoxicity control, set 4 (AID 504911); assay type: functional; conditions: Mycobacterium tuberculosis
Vero = assay: viability of Vero cells under compound – cytotoxicity control for flavivirus capping enzyme inhibitors (AID 588742); assay type: functional; conditions: Chlorocebus sabaeus
H9c2 = assay: cells; assay type: functional, cell-based; conditions: Rattus norvegicus, H9c2, Myocardium;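 note: confirmatory concentration-response retest of ultra-high-throughput screening hits for modulation of myocardial damage; cell death induced by hydrogen peroxide oxidative stress; compound pretreatment for 60 min then peroxide exposure for 2 h; potency is for protecting the cells against peroxide damage rather than for killing them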
Genome polyprotein = Genome polyprotein (dengue virus type 2, UniProt P29990); assay: flavivirus cap methylation enzyme inhibition – biochemical, confirmation dose response, primary screen (AID 588689); assay type: functional
[14] = molecular target: T5, Corticotropin-releasing factor receptor 2/Corticotropin-releasing factor-binding protein (Homo sapiens, UniProt P24387+Q13324); assay: activators of CRF receptor 2 with binding protein – uHTS hits, confirmation (AID 602473); assay type: functional; conditions: read-out: EC50_Mean
T5 sequence (Q13324 whole entry): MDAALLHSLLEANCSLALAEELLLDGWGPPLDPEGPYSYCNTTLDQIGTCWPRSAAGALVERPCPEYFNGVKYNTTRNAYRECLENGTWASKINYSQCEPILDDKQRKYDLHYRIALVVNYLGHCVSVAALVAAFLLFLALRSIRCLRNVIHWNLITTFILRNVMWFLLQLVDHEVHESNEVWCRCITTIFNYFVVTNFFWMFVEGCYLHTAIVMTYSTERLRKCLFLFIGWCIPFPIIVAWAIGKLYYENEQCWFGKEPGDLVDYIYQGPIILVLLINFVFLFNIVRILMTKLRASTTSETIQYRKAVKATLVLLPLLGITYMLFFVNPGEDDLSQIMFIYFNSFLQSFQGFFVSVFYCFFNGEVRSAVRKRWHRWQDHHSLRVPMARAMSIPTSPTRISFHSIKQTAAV
T5 sequence (P24387 whole entry): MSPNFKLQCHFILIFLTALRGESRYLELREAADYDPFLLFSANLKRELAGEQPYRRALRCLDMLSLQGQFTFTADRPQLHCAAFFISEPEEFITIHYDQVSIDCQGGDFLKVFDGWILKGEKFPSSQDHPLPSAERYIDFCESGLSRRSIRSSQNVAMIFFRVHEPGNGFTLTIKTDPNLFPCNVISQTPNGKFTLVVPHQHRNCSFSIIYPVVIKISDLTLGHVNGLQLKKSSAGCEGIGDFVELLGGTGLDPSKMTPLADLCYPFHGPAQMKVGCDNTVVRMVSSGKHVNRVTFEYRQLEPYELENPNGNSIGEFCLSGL

T3 sequence (P32245 whole entry): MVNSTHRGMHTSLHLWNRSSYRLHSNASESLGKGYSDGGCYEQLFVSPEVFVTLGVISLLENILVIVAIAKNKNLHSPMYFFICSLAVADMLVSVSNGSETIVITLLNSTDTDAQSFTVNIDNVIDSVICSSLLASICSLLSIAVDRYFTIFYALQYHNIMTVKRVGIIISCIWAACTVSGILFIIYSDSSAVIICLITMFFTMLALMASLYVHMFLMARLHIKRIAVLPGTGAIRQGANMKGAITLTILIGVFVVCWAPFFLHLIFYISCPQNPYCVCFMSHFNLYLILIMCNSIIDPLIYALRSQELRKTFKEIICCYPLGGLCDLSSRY
Cytochrome P450 3A4, sequence (P08684 whole entry): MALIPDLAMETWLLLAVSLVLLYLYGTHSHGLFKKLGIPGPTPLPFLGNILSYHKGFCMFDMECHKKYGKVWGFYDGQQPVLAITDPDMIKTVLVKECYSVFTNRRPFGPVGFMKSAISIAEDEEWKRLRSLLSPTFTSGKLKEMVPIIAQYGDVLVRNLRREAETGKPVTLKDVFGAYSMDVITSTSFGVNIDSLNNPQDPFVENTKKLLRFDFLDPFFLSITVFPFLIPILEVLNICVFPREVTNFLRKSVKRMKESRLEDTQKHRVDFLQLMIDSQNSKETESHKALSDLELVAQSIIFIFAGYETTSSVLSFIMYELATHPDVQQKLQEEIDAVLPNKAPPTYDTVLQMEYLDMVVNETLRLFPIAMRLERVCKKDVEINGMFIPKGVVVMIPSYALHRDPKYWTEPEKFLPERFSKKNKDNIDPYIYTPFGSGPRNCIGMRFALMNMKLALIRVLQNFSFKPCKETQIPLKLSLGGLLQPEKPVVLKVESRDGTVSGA
Genome polyprotein, sequence (P29990 2492-3391 limits assumed): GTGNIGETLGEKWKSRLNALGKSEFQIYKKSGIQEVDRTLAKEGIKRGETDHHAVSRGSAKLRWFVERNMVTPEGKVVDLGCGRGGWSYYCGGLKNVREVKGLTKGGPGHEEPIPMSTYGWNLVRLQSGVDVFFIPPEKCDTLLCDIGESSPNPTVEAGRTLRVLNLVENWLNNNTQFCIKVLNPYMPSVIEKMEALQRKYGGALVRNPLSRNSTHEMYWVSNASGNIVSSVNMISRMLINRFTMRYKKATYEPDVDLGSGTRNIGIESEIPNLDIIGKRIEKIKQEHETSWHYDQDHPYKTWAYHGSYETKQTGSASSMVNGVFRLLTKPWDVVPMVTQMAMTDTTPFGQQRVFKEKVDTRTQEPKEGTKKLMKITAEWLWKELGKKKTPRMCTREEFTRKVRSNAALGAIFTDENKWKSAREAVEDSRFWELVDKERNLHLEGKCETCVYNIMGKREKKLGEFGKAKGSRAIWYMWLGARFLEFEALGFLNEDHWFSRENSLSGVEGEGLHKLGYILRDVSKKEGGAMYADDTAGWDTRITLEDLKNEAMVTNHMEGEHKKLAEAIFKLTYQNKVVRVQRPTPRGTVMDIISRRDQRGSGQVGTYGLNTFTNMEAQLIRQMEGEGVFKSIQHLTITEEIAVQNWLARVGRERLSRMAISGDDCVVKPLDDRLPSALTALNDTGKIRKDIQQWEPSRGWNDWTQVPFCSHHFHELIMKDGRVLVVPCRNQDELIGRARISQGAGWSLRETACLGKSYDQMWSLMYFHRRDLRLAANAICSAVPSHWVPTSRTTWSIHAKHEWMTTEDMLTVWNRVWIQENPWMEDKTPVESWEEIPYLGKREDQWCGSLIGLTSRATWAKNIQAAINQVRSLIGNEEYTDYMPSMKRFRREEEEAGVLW

COc1ccc2c(c1)Cc1sc(NC(=O)c3ccccc3)nc1-2
EC50 [1]: 31.3 µM (active) | EC50 [2]: 42.4 µM (active) | EC50 (H4): 4.58 µM (active) | IC50 [3]: 27.5 µM (active) | IC50 (Protein skinhead-1): > 100 µM (inactive)

CC1=C(CO)C(=O)OC([C@@H](C)C2CC[C@H]3C4C[C@H]5O[C@]56[C@@H](O)C=CC(=O)[C@]6(C)C4CC[C@]23C)C1 (some centres not stated)
EC50 [1]: > 120 µM (not active) | EC50 [2]: > 120 µM (not active) | EC50 (H4): > 120 µM (not active) | AC50 [4]: 0.982 µM (active) | AC50 (INS1): 7.49 µM (active) | IC50 (Melanocortin receptor 4 [5]): > 64.6 µM (inactive) | AC50 [6]: 0.674 µM (active) | AC50 [7]: 9.71 µM (active) | AC50 [8]: 1.99 µM (active) | IC50 [9]: > 64.6 µM (inactive) | IC50 [10]: 2.65 µM (active)

COc1cccc2c1C(=O)C=C(C)C2=O
AC50 [11]: 7.83 µM (active) | IC50 [3]: 14.4 µM (active) | AC50 (A-375): 37.8 µM (active)

CC1CC2(CCCCC2)N2C(=O)C(=O)c3cccc1c32 (configuration not stated)
IC50 [3]: 24.4 µM (active) | AC50 (Cytochrome P450 3A4): 25.1 µM (inconclusive)

CC(=O)Nc1cc(-c2ccccc2F)cn2c(-c3cccc(C(F)(F)F)c3)cnc12
EC50 (Melanocortin receptor 4 [12]): > 89.2 µM (inactive)

CCCc1cc(C(N)=S)ccn1 [PROTIONAMIDE]
CC50 [13]: > 100 µM (active)

NC(=O)C1=C(c2ccccc2)c2ccccc2C1=O
CC50 (Vero): 32.1 µM (active) | IC50 (H9c2): > 79 µM (inactive) | IC50 (Genome polyprotein): 59.5 µM (active) | EC50 [14]: 11.9 µM (active)
